Measured values reported in US6143492A, “Optical molecular sensors for cytochrome P450 activity” (Aurora Biosciences Corporation, priority 1999, dated 2000).

Key:
CYP 3A4 = biological target: T1, CYP 3A4 (Homo sapiens, UniProt P08684); assay: Kinetics of fluorogenic substrates with CYP 3A4; assay type: biochemical; details: for conversion to the same fluorescent product vs the most closely structurally-related substrate / kcat / type of kinetics / kcat/Km: CYP 3A4; for v (1.25 uM), turnover rate at 1.25 μM: CYP 3A4, substrate 1.25 uM; for v (10 uM), turnover rate at 10 μM: CYP 3A4, substrate 10 uM
T1 construct: NADPH regenerating system
Text: Whichever of the four abstractable hydrogen atoms (designated H^1 and H^2 in this representation of BOMR) is removed in the initial reaction step, with reference to Reaction Scheme 1 of FIG. 1, the hydroxylation product will spontaneously decompose to the free resorufin dye. In addition, the benzyloxy group, attached to the carbon carrying the two hydrogens designated H^2, contributes an inductive electronic effect on that carbon, which can stabilize the radical formed during abstraction of one of the H^2 hydrogens by a cytochrome P450.
Optimization of assay conditions was, and is preferably, accomplished through statistically validated Design of Experiments methodologies, using the commercial software package "Design-Expert®" produced by Stat-Ease® Inc. The data shown in FIGS. 4 and 5 were obtained with initial optimization.
For further understanding these terms in the context of this invention, attention is directed to FIG. 4 and the analysis of FIG. 4.

CYP 2C19 = CYP 2C19 (Homo sapiens, UniProt P33261); assay: Kinetics of fluorogenic substrates with CYP 2C19; assay type: biochemical; details: for kcat / kcat/Km / type of kinetics / conversion to the same fluorescent product vs the most closely structurally-related substrate: CYP 2C19; for v (1.25 uM), turnover rate at 1.25 μM: CYP 2C19, substrate 1.25 uM; for v (10 uM), turnover rate at 10 μM: CYP 2C19, substrate 10 uM
CYP 2C9 = CYP 2C9 (Homo sapiens, UniProt P11712); assay: Kinetics of fluorogenic substrates with CYP 2C9; assay type: biochemical; details: for kcat / kcat/Km / conversion to the same fluorescent product vs the most closely structurally-related substrate / type of kinetics: CYP 2C9; for v (1.25 uM), turnover rate at 1.25 μM: CYP 2C9, substrate 1.25 uM; for v (10 uM), turnover rate at 10 μM: CYP 2C9, substrate 10 uM
CYP 2B6 = biological target: T2, CYP 2B6 (Homo sapiens, UniProt P20813)
T2 sequence (P20813 1-491): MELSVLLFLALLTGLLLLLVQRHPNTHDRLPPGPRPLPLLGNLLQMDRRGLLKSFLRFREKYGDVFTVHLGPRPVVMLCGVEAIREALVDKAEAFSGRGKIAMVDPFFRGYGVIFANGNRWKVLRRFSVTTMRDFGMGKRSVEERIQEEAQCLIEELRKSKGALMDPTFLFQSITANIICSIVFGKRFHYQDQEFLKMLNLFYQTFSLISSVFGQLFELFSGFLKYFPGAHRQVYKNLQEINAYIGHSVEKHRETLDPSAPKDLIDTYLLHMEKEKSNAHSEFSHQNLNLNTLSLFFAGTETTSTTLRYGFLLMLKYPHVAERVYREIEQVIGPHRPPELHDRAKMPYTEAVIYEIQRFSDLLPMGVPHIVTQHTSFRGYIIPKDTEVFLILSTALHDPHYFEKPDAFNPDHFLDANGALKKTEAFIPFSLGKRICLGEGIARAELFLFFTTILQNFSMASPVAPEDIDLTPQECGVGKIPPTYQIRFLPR

CYP 2D6 = CYP 2D6 (Homo sapiens, UniProt P10635); assay: Kinetics of fluorogenic substrates with CYP 2D6; assay type: biochemical
[1] = in parentheses: from Michaelis-Menten fit (sigmoidal kinetics)

Chain of CYP 2D6 (P10635 whole entry): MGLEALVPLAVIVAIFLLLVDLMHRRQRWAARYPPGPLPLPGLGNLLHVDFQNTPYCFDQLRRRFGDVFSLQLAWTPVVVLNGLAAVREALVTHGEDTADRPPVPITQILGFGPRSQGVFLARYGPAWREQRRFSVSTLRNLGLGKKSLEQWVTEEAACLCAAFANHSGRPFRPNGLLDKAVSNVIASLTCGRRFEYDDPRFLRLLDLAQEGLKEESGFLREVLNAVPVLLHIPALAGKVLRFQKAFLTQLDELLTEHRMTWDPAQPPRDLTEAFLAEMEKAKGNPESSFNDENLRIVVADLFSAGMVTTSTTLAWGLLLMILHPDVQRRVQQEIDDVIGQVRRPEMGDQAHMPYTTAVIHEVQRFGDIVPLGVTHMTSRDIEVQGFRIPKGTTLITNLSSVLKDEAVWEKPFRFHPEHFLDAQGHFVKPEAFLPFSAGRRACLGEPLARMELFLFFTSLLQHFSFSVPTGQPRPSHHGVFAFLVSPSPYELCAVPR
T1 sequence (P08684 whole entry): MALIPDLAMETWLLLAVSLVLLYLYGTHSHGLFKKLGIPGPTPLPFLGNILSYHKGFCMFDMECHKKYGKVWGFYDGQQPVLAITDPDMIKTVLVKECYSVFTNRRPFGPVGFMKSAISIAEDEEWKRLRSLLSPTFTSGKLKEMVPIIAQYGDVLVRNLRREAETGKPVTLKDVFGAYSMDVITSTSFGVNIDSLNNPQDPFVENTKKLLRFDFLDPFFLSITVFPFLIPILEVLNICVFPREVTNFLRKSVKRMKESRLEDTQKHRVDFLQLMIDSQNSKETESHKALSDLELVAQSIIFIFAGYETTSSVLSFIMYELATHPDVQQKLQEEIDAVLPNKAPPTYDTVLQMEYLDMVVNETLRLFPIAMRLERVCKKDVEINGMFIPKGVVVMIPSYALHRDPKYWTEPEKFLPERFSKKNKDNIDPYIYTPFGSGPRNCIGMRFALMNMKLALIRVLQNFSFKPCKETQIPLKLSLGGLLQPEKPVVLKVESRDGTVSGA
Chain of CYP 2C9 (P11712 whole entry): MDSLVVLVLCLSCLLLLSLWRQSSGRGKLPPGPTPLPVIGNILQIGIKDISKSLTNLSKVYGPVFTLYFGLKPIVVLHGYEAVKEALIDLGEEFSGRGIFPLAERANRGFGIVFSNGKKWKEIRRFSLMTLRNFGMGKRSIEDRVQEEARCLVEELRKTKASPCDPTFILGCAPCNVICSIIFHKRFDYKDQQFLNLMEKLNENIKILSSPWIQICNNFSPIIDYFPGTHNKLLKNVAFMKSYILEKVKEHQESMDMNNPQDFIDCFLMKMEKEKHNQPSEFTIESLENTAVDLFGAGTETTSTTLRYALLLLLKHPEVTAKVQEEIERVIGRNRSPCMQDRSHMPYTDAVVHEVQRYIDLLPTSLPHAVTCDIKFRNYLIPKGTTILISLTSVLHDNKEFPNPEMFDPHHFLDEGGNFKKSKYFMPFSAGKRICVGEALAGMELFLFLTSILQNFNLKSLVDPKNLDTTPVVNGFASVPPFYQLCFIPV
Chain of CYP 2C19 (P33261 whole entry): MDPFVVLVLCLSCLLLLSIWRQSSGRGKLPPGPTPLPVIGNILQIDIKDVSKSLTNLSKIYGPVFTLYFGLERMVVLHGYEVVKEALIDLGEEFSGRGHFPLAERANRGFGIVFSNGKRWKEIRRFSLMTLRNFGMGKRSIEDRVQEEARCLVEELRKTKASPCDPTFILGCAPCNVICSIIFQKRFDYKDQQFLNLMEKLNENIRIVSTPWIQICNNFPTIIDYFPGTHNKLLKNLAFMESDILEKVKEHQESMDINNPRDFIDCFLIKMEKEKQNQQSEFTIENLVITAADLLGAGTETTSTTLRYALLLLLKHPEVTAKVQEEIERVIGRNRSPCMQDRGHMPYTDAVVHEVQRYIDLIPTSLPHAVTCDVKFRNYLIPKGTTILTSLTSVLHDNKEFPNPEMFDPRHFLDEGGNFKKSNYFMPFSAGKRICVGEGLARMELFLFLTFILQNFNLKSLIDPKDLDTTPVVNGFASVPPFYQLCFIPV

## CCOCOc1ccc2nc3ccc(=O)cc-3oc2c1 [EOMR]
CYP 3A4
  conversion to the same fluorescent product vs the most closely structurally-related substrate: more efficient conversion
  kcat: 0.0017 s⁻¹
  type of kinetics: Michaelis-
  v (1.25 uM), turnover rate at 1.25 μM: 0.03 min⁻¹
  v (10 uM), turnover rate at 10 μM: 0.10 min⁻¹

## CCCCCCCCOCOc1ccc2nc3ccc(=O)cc-3oc2c1 [OOMR, Octyloxymethylresorufin]
CYP 3A4
  kcat: 0.011 s⁻¹
  kcat/Km: 7857 M⁻¹ s⁻¹
  v (1.25 uM), turnover rate at 1.25 μM: 0.323 min⁻¹
  v (10 uM), turnover rate at 10 μM: 0.601 min⁻¹
CYP 2C19
  kcat: 0.00283 s⁻¹
  kcat/Km: 4048 M⁻¹ s⁻¹
  v (1.25 uM), turnover rate at 1.25 μM: 0.1 min⁻¹
  v (10 uM), turnover rate at 10 μM: 0.13 min⁻¹
CYP 2C9
  kcat: 0.0067 s⁻¹
  kcat/Km: 2564 M⁻¹ s⁻¹
  v (1.25 uM), turnover rate at 1.25 μM: 0.137 min⁻¹
  v (10 uM), turnover rate at 10 μM: 0.31 min⁻¹

## O=c1ccc2nc3ccc(OCOCc4ccccc4)cc3oc-2c1 [BOMR, Benzyloxymethylresorufin]
CYP 3A4
  conversion to the same fluorescent product vs the most closely structurally-related substrate: more efficient conversion
  kcat: 0.0183 s⁻¹
  kcat/Km: 13095 M⁻¹ s⁻¹
  type of kinetics: Michaelis-
  v (1.25 uM), turnover rate at 1.25 μM: 0.55 min⁻¹
  v (10 uM), turnover rate at 10 μM: 0.88 min⁻¹
CYP 3A4; CYP 3A4, FIG. 4 data
  turnover rate (kcat): 0.5 s⁻¹
CYP 3A4; FIG. 4 data
  CYP 3A4 turnover rate of BOMR relative to BR: approximately five times greater
  enzymatic efficiency (kcat /Km) of CYP 3A4 towards BOMR relative to BR: 14 times
CYP 2B6
  conversion to the same fluorescent product vs the most closely structurally-related substrate: more efficient conversion
  kcat: 0.013 s⁻¹
  kcat/Km: 18265 M⁻¹ s⁻¹
  type of kinetics: Michaelis-
  v (1.25 uM), turnover rate at 1.25 μM: 0.28 min⁻¹
  v (10 uM), turnover rate at 10 μM: 0.71 min⁻¹

## CCCCCCCCOCOc1ccc2cc(C#N)c(=O)oc2c1 [OOMCC]
CYP 3A4
  kcat: 0.0198 s⁻¹
  kcat/Km: 4506 M⁻¹ s⁻¹
  v (1.25 uM), turnover rate at 1.25 μM: 0.2274 min⁻¹
  v (10 uM), turnover rate at 10 μM: 0.981 min⁻¹
CYP 2C19
  kcat: 0.0283 s⁻¹
  kcat/Km: 4106 M⁻¹ s⁻¹
  v (1.25 uM), turnover rate at 1.25 μM: 0.179 min⁻¹
  v (10 uM), turnover rate at 10 μM: 1.043 min⁻¹

## O=C(OCc1ccccc1)c1c2oc3cc(OCc4ccccc4)ccc3nc-2ccc1=O [BRCBE]
CYP 3A4
  kcat: 0.0138 s⁻¹
  kcat/Km: 5123 M⁻¹ s⁻¹
  v (1.25 uM), turnover rate at 1.25 μM: 0.1992 min⁻¹
  v (10 uM), turnover rate at 10 μM: 0.6241 min⁻¹

## N#Cc1cc2ccc(OCc3ccccc3)cc2oc1=O [BCC, 7-Benzyloxy-3-cyanocoumarin, reference compound]
CYP 2C19
  kcat: 0.0017 s⁻¹
  kcat/Km: 234 M⁻¹ s⁻¹
  type of kinetics: Michaelis-
  v (1.25 uM), turnover rate at 1.25 μM: 0.02 min⁻¹
  v (10 uM), turnover rate at 10 μM: 0.06 min⁻¹
CYP 2B6
  kcat: 0.0017 s⁻¹
  kcat/Km: 1064 M⁻¹ s⁻¹
  type of kinetics: Michaelis-
  v (1.25 uM), turnover rate at 1.25 μM: 0.04 min⁻¹
  v (10 uM), turnover rate at 10 μM: 0.07 min⁻¹
CYP 2C9
  v (1.25 uM), turnover rate at 1.25 μM: 0.00 min⁻¹
  v (10 uM), turnover rate at 10 μM: 0.00 min⁻¹

## COCOc1ccc2cc(C#N)c(=O)oc2c1 [MOMCC]
CYP 2C19
  conversion to the same fluorescent product vs the most closely structurally-related substrate: more efficient conversion
  kcat: 0.0083 s⁻¹
  kcat/Km: 2604 M⁻¹ s⁻¹
  type of kinetics: Michaelis-
  v (1.25 uM), turnover rate at 1.25 μM: 0.14 min⁻¹
  v (10 uM), turnover rate at 10 μM: 0.38 min⁻¹
CYP 2C9
  conversion to the same fluorescent product vs the most closely structurally-related substrate: more efficient conversion
  kcat: 0.0033 s⁻¹
  kcat/Km: 167 M⁻¹ s⁻¹
  type of kinetics: Michaelis
  v (1.25 uM), turnover rate at 1.25 μM: 0.01 min⁻¹
  v (10 uM), turnover rate at 10 μM: 0.07 min⁻¹

## CCN(CC)Cc1cc(=O)oc2cc(OC)ccc12 [DMMC]
CYP 2C19
  kcat: 0.0067 s⁻¹
  kcat/Km: 784 M⁻¹ s⁻¹
  v (1.25 uM), turnover rate at 1.25 μM: 0.03 min⁻¹
  v (10 uM), turnover rate at 10 μM: 0.23 min⁻¹

## O=c1cc(C(F)(F)F)c2ccc(OCOCc3ccccc3)cc2o1 [BOMFC]
CYP 3A4
  conversion to the same fluorescent product vs the most closely structurally-related substrate: more efficient conversion
  kcat: 0.0667 s⁻¹
  type of kinetics: Michaelis-
  v (1.25 uM), turnover rate at 1.25 μM: 0.11 min⁻¹
  v (10 uM), turnover rate at 10 μM: 1.41 min⁻¹

## COc1ccc2cc(C#N)c(=O)oc2c1 [3CMC, 3-cyano-7-methoxycoumarin, reference compound]
CYP 2C19
  type of kinetics: linear
  v (1.25 uM), turnover rate at 1.25 μM: 0.01 min⁻¹
  v (10 uM), turnover rate at 10 μM: 0.07 min⁻¹
CYP 2C9
  kcat: 0.0067 s⁻¹
  kcat/Km: 85 M⁻¹ s⁻¹
  type of kinetics: linear
  v (1.25 uM), turnover rate at 1.25 μM: 0.00 min⁻¹
  v (10 uM), turnover rate at 10 μM: 0.04 min⁻¹

## O=c1cc(C(F)(F)F)c2ccc(OCc3ccccc3)cc2o1 [BFC, 7-Benzyloxy-4-trifluoromethylcoumarin, reference compound]
CYP 3A4
  type of kinetics: linear
  v (1.25 uM), turnover rate at 1.25 μM: 0.04 min⁻¹
  v (10 uM), turnover rate at 10 μM: 0.81 min⁻¹

## N#Cc1cc2ccc(OCOCc3ccccc3)cc2oc1=O [BOMCC, 7-Benzyloxymethyloxy-3-cyanocoumarin]
CYP 3A4
  conversion to the same fluorescent product vs the most closely structurally-related substrate: more efficient conversion
  type of kinetics: sigmoidal
  v (1.25 uM), turnover rate at 1.25 μM: 0.12 min⁻¹
  v (10 uM), turnover rate at 10 μM: 0.98 min⁻¹
CYP 3A4; [1]
  kcat: 0.167 s⁻¹
  kcat/Km: 1873 M⁻¹ s⁻¹
CYP 2C19
  conversion to the same fluorescent product vs the most closely structurally-related substrate: more efficient conversion
  kcat: 0.0317 s⁻¹
  kcat/Km: 2262 M⁻¹ s⁻¹
  type of kinetics: Michaelis-
  v (1.25 uM), turnover rate at 1.25 μM: 0.16 min⁻¹
  v (10 uM), turnover rate at 10 μM: 0.68 min⁻¹
CYP 2B6
  conversion to the same fluorescent product vs the most closely structurally-related substrate: more efficient conversion
  kcat: 1.1 s⁻¹
  kcat/Km: 21154 M⁻¹ s⁻¹
  type of kinetics: Michaelis-
  v (1.25 uM), turnover rate at 1.25 μM: 0.38 min⁻¹
  v (10 uM), turnover rate at 10 μM: 3.05 min⁻¹
CYP 2C9
  conversion to the same fluorescent product vs the most closely structurally-related substrate: more efficient conversion
  kcat: 0.035 s⁻¹
  type of kinetics: Michaelis-
  v (1.25 uM), turnover rate at 1.25 μM: 0.04 min⁻¹
  v (10 uM), turnover rate at 10 μM: 0.42 min⁻¹

## CC(C)Oc1ccc2cc(C#N)c(=O)oc2c1 [IPCC]
CYP 2C19
  kcat: 0.0325 s⁻¹
  kcat/Km: 568 M⁻¹ s⁻¹
  v (1.25 uM), turnover rate at 1.25 μM: 0.027 min⁻¹
  v (10 uM), turnover rate at 10 μM: 0.232 min⁻¹
CYP 2D6; CYP 2D6
  kcat: 0.0017 s⁻¹
  kcat/Km: 93 M⁻¹ s⁻¹
CYP 2D6; CYP 2D6, substrate 1.25 uM
  v (1.25 uM), turnover rate at 1.25 μM: 0.0076 min⁻¹
CYP 2D6; CYP 2D6, substrate 10 uM
  v (10 uM), turnover rate at 10 μM: 0.0378 min⁻¹

## CC1(C)C2=C(Cl)C(=O)C(Cl)=CC2=Nc2ccc(OCOCc3ccccc3)cc21 [BOMDDAO]
CYP 3A4
  kcat: 0.1 s⁻¹
  kcat/Km: 14286 M⁻¹ s⁻¹
  v (1.25 uM), turnover rate at 1.25 μM: 0.4402 min⁻¹
  v (10 uM), turnover rate at 10 μM: 4.2041 min⁻¹
